Data on two compounds can be found in US20150307554A1, “NTS-POLYPLEX NANOPARTICLES SYSTEM FOR GENE THERAPY OF CANCER” (priority 2011, published 2015).

In experiment [1] the test system is MDA-MB-231 cells. Nature of the experiment: Internalization of NTS-polyplex via NTSR1 endocytosis with blocking assays, MDA-MB-231. The conditions noted are these: NTS 1 μM, SR48692 500 nM, sucrose 0.45 M. Format: cell-based, human.
Experimental: (§1) The cytoplasm was stained with calcein AM (green). Cells were analyzed by confocal multi spectral imaging system TCS-SPE (Leica Mycrosystems, Wetzlar, Germany). The fluorescence was detected under the following conditions Ex/Em: 405/430 nm for the blue channel with UV light; 488/512-573 nm for the green channel with an argon laser; and 563/563-544 for the red channel with a Helium-Neon laser. We obtained 10 to 20 consecutive optical sections of 1 μm apart in the z series.
The test system of experiment [2] is MCF7 cells. Nature of the experiment: Internalization of NTS-polyplex via NTSR1 endocytosis with blocking assays, MCF7. It is filed as cell-based, human. The note with it: NTS 1 μM, SR48692 500 nM, sucrose 0.45 M.
Experimental: as §1

`COc1cccc(OC)c1-c1cc(C(=O)NC2(C(=O)O)C3CC4CC(C3)CC2C4)nn1-c1ccnc2cc(Cl)ccc12` (stereo not shown) [SR48692]: the “blocking of NTS-polyplex internalization” value in experiment [1] and in experiment [2] was “prevented the entrance of NTS-polyplex” each time.
On to `OC[C@H]1O[C@@](CO)(O[C@H]2O[C@H](CO)[C@@H](O)[C@H](O)[C@H]2O)[C@@H](O)[C@@H]1O` [sucrose], for which the “blocking of NTS-polyplex internalization” value in experiment [1] and in experiment [2] was “blocked” throughout.
